Experimental data as given in ChEMBL document CHEMBL1772964, “Structural requirements of flavonoids for the adipogenesis of 3T3-L1 cells” (Bioorg Med Chem, 2011).

Key:
[1] = tested on: 3T3-L1; experiment: Effect on C/EBPdelta mRNA expression in mouse 3T3L1 cells at 3 uM on day 8 by RT-PCR relative to beta-actin mRNA expression; type: functional
[2] = tested on: 3T3-L1; experiment: Effect on C/EBPdelta mRNA expression in mouse 3T3L1 cells at 10 uM on day 8 by RT-PCR relative to beta-actin mRNA expression; type: functional
[3] = tested on: 3T3-L1; experiment: Effect on C/EBPdelta mRNA expression in mouse 3T3L1 adipocytes at 30 uM on day 8 by RT-PCR relative to beta-actin mRNA expression; type: functional
[4] = tested on: 3T3-L1; experiment: Induction of insulin-stimulated 2-deoxy-D- 2,6-[3H]-glucose uptake in mouse 3T3L1 cells chronically treated at 10 uM by liquid scintillation counting (reference value: 100.0 %); type: functional
[5] = tested on: 3T3-L1; experiment: Induction of insulin-stimulated 2-deoxy-D- 2,6-[3H]-glucose uptake in mouse 3T3L1 cells chronically treated at 30 uM by liquid scintillation counting (reference value: 100.0 %); type: functional
[6] = tested on: 3T3-L1; experiment: Induction of insulin-stimulated 2-deoxy-D- 2,6-[3H]-glucose uptake in differentiated mouse 3T3L1 cells at 10 uM compound treated for 20 mins with insulin by liquid scintillation counting (reference value: 100.0 %); type: functional
[7] = tested on: 3T3-L1; experiment: Induction of insulin-stimulated 2-deoxy-D- 2,6-[3H]-glucose uptake in differentiated mouse 3T3L1 cells at 30 uM compound treated for 20 mins with insulin by liquid scintillation counting (reference value: 100.0 %); type: functional
[8] = tested on: 3T3-L1; experiment: Effect on adiponectin mRNA expression in mouse 3T3L1 cells at 3 uM on day 8 by RT-PCR relative to beta-actin mRNA expression; type: functional
[9] = tested on: 3T3-L1; experiment: Effect on adiponectin mRNA expression in mouse 3T3L1 cells at 30 uM on day 8 by RT-PCR relative to beta-actin mRNA expression; type: functional
[10] = tested on: 3T3-L1; experiment: Effect on adiponectin mRNA expression in mouse 3T3L1 cells at 10 uM on day 8 by RT-PCR relative to beta-actin mRNA expression; type: functional
[11] = tested on: 3T3-L1; experiment: Effect on PPARgamma2 mRNA expression in mouse 3T3L1 cells at 3 uM on day 8 by RT-PCR relative to beta-actin mRNA expression; type: functional
[12] = tested on: 3T3-L1; experiment: Effect on PPARgamma2 mRNA expression in mouse 3T3L1 cells at 10 uM on day 8 by RT-PCR relative to beta-actin mRNA expression; type: functional
[13] = tested on: 3T3-L1; experiment: Effect on PPARgamma2 mRNA expression in mouse 3T3L1 cells at 30 uM on day 8 by RT-PCR relative to beta-actin mRNA expression; type: functional
[14] = tested on: 3T3-L1; experiment: Effect on GlUT4 mRNA expression in mouse 3T3L1 cells at 3 uM on day 8 by RT-PCR relative to beta-actin mRNA expression; type: functional
[15] = tested on: 3T3-L1; experiment: Effect on GlUT4 mRNA expression in mouse 3T3L1 cells at 10 uM on day 8 by RT-PCR relative to beta-actin mRNA expression; type: functional
[16] = tested on: 3T3-L1; experiment: Effect on GlUT4 mRNA expression in mouse 3T3L1 cells at 30 uM on day 8 by RT-PCR relative to beta-actin mRNA expression; type: functional
[17] = tested on: 3T3-L1; experiment: Effect on aP2 mRNA expression in mouse 3T3L1 cells at 3 uM on day 8 by RT-PCR relative to beta-actin mRNA expression; type: functional
[18] = tested on: 3T3-L1; experiment: Effect on aP2 mRNA expression in mouse 3T3L1 cells at 10 uM on day 8 by RT-PCR relative to beta-actin mRNA expression; type: functional
[19] = tested on: 3T3-L1; experiment: Effect on aP2 mRNA expression in mouse 3T3L1 cells at 30 uM on day 8 by RT-PCR relative to beta-actin mRNA expression; type: functional
[20] = tested on: 3T3-L1; experiment: Effect on C/EBPalpha mRNA expression in mouse 3T3L1 cells at 3 uM on day 8 by RT-PCR relative to beta-actin mRNA expression; type: functional
[21] = tested on: 3T3-L1; experiment: Effect on C/EBPalpha mRNA expression in mouse 3T3L1 cells at 10 uM on day 8 by RT-PCR relative to beta-actin mRNA expression; type: functional
[22] = tested on: 3T3-L1; experiment: Effect on C/EBPalpha mRNA expression in mouse 3T3L1 cells at 30 uM on day 8 by RT-PCR relative to beta-actin mRNA expression; type: functional
[23] = tested on: 3T3-L1; experiment: Effect on C/EBPbeta mRNA expression in mouse 3T3L1 cells at 3 uM on day 8 by RT-PCR relative to beta-actin mRNA expression; type: functional
[24] = tested on: 3T3-L1; experiment: Effect on C/EBPbeta mRNA expression in mouse 3T3L1 cells at 10 uM on day 8 by RT-PCR relative to beta-actin mRNA expression; type: functional
[25] = tested on: 3T3-L1; experiment: Effect on C/EBPbeta mRNA expression in mouse 3T3L1 cells at 30 uM on day 8 by RT-PCR relative to beta-actin mRNA expression; type: functional
[26] = tested on: 3T3-L1; experiment: Induction of adipogenesis in mouse 3T3L1 cells assessed as increase in triglyceride level on day 8; type: functional, cell-based
[27] = tested on: 3T3-L1; experiment: Induction of adipogenesis in mouse 3T3L1 cells assessed as increase in triglyceride level at 0.3 uM on day 8 relative to control; type: functional
[28] = tested on: 3T3-L1; experiment: Induction of adipogenesis in mouse 3T3L1 cells assessed as increase in triglyceride level at 1 uM on day 8 relative to control; type: functional
[29] = tested on: 3T3-L1; experiment: Induction of adipogenesis in mouse 3T3L1 cells assessed as increase in triglyceride level at 3 uM on day 8 relative to control; type: functional
[30] = tested on: 3T3-L1; experiment: Induction of adipogenesis in mouse 3T3L1 cells assessed as increase in triglyceride level at 10 uM on day 8 relative to control; type: functional
[31] = tested on: 3T3-L1; experiment: Induction of adipogenesis in mouse 3T3L1 cells assessed as increase in triglyceride level at 30 uM on day 8 relative to control; type: functional
[32] = tested on: 3T3-L1; experiment: Induction of adiponectin protein secretion in mouse 3T3L1 cells at 1 uM on day 8 by ELISA relative to control; type: functional
[33] = tested on: 3T3-L1; experiment: Induction of adiponectin protein secretion in mouse 3T3L1 cells at 3 uM on day 8 by ELISA relative to control; type: functional
[34] = tested on: 3T3-L1; experiment: Induction of adiponectin protein secretion in mouse 3T3L1 cells at 10 uM on day 8 by ELISA relative to control; type: functional
[35] = tested on: 3T3-L1; experiment: Induction of adiponectin protein secretion in mouse 3T3L1 cells at 30 uM on day 8 by ELISA relative to control; type: functional
[36] = tested on: 3T3-L1; experiment: Induction of insulin-stimulated 2-deoxy-D- 2,6-[3H]-glucose uptake in mouse 3T3L1 cells chronically treated at 1 uM by liquid scintillation counting (reference value: 100.0 %); type: functional
[37] = tested on: 3T3-L1; experiment: Inhibition of insulin-stimulated 2-deoxy-D- 2,6-[3H]-glucose uptake in differentiated mouse 3T3L1 cells compound treated for 20 mins with insulin by liquid scintillation counting (reference value: 100.0 %); type: functional, cell-based

| SMILES | Ratio [1] | Ratio [2] | Ratio [3] | Activity [4] | Activity [5] | Activity [6] | Activity [7] | Ratio [8] | Ratio [9] | Activity [26] | Activity [27] | Activity [28] | Activity [29] | Activity [30] | Activity [31] | Activity [32] | Activity [33] | Activity [34] | Activity [35] | Activity [36] | further results |
| --- | --- | --- | --- | --- | --- | --- | --- | --- | --- | --- | --- | --- | --- | --- | --- | --- | --- | --- | --- | --- | --- |
| COc1cc(OC)c2c(=O)c(OC)c(-c3ccc(OC)c(OC)c3)oc2c1 | 1.54 | 1.93 | 2.34 | 152.9% | 127.3% | 65.5% | 35.9% | 1.67 | 2.59 | Dose-dependent effect | 9.4% | 17.7% | 26.2% | 27% | 27.4% | 137.8% | 156.8% | 131.4% | 128.1% | 129.9% | Ratio [10]: 1.91; Ratio [11]: 1.84; Ratio [12]: 1.99; Ratio [13]: 2.42; Ratio [14]: 2.01; Ratio [15]: 2.25; Ratio [16]: 3.62; Ratio [17]: 1.34; Ratio [18]: 1.59; Ratio [19]: 2.1; Ratio [20]: 1.79; Ratio [21]: 1.5; Ratio [22]: 1.38; Ratio [23]: 1.73; Ratio [24]: 3.01; Ratio [25]: 3.82 |
| COc1ccc(-c2oc3cc(OC)cc(O)c3c(=O)c2OC)cc1 | – | – | – | 118.9% | 113.6% | 69.8% | 60.1% | – | – | Dose-dependent effect | 9.3% | 21.7% | 20.8% | 22.5% | 23% | 119.7% | 125.3% | 123.3% | 131.9% | 108.5% | – |
| O=c1c(O)c(-c2ccc(O)cc2)oc2cc(O)cc(O)c12 [KAEMPFEROL] | – | – | – | – | – | 30.3% | 12.7% | – | – | – | – | 6.2% | 5.9% | 0.3% | 3.7% | – | – | – | – | – | inhibition [37]: Dose-dependent effect |
| COc1ccc(-c2oc3cc(OC)cc(OC)c3c(=O)c2OC)cc1 [TETRAMETHYLKAEMPFEROL] | 0.89 | 1.23 | 0.77 | 163.1% | 135.8% | 62.7% | 46% | 1.81 | 2.9 | Dose-dependent effect | 10.1% | 19.1% | 24.1% | 28.2% | 33.7% | 144.6% | 149.5% | 164.7% | 136.7% | 146.5% | Ratio [10]: 2.05; Ratio [11]: 1.67; Ratio [12]: 1.81; Ratio [13]: 2.11; Ratio [14]: 2.38; Ratio [15]: 2.54; Ratio [16]: 2.61; Ratio [17]: 1.53; Ratio [18]: 2.02; Ratio [19]: 2.24; Ratio [20]: 1.88; Ratio [21]: 2.08; Ratio [22]: 1.82; Ratio [23]: 1.34; Ratio [24]: 1.89; Ratio [25]: 3.14 |
